Where a chain is given by its changes, count along the chain named.
How the values were obtained:
SH2-ISM/BT2-BF = molecular target: T1, SH2-ISM/BT2-BF (Zea mays, UniProt P55241+Q947C0, Q96G/E123G/D161G/R331K/K402R/A443R); assay: Pi inhibition study without 3-PGA, ATP varied (0.1-3 mM) at fixed Pi levels (10-30 mM) and sub-saturating G-1-P (1 mM), fit to mixed-type inhibition equations.; format: biochemical; details: read-out: Km (mM), varied substrate ATP, Pi inhibition in the absence of 3-PGA
T1 construct: SH2-ISM co-expressed with BT2-BF, E. coli, purified
T1 sequence (Q947C0 1-475 E123G/R331K/K402R): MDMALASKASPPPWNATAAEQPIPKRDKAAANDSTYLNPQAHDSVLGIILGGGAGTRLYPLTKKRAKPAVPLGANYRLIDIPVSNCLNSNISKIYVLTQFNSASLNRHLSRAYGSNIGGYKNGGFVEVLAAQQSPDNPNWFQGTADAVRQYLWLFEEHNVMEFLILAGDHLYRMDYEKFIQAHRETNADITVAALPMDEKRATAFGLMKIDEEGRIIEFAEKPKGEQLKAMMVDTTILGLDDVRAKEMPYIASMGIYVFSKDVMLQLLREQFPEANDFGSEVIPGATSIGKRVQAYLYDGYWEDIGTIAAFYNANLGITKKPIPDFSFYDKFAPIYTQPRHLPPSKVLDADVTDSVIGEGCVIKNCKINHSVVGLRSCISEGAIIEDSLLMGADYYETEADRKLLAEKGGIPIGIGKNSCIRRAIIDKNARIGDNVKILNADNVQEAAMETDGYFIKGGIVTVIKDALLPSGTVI
T1 sequence (P55241 46-516 Q96G/D161G/A443R): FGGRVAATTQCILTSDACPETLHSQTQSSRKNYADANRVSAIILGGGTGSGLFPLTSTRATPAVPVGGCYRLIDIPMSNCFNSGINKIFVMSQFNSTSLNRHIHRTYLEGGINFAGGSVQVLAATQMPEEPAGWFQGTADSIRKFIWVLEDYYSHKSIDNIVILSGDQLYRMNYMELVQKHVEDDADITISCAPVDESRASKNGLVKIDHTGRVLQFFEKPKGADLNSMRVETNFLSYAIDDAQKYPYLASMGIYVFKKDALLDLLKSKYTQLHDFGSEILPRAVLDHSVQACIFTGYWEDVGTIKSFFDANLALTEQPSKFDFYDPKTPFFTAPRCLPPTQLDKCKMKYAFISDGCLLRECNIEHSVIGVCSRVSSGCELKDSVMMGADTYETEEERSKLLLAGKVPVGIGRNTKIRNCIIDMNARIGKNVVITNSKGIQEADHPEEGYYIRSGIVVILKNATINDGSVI
Experimental: (§2) Pi inhibition was carried out in both the presence and absence of 3-PGA with the Pi and substrate concentrations listed below.
A large α value indicates competitive inhibition whereby the inhibitor prevents binding of the substrate. If the inhibitor enhances the binding of the substrate, α is very small, and the model reduces to an uncompetitive model. […] Special cases include pure non-competitive inhibition, where α = 1 and β = 0 and partial non-competitive inhibition whereby α = 1 and 0 < β < 1.
(§3) Pi inhibition patterns in the presence and absence of 3PGA were also determined. Pi inhibition patterns were obtained by varying one substrate at several fixed concentrations of Pi, while holding the co-substrate at constant sub-saturating levels.

SH2-E/BT2-BF = molecular target: T2, SH2-E/BT2-BF (Zea mays, UniProt P55241+Q947C0, E123G/N131R/T142F/A160T/Q261S/R331K/A396S/K402R/V416I/C424V/S444A); assay: as above; format: biochemical; details: read-out: Km (mM), varied substrate ATP, Pi inhibition in the absence of 3-PGA
T2 construct: SH2-E co-expressed with BT2-BF, E. coli, purified
T2 sequence (Q947C0 1-475 E123G/R331K/K402R): T1 sequence (Q947C0 1-475 E123G/R331K/K402R)
T2 sequence (P55241 46-516 N131R/T142F/A160T/Q261S/A396S/V416I/C424V/S444A): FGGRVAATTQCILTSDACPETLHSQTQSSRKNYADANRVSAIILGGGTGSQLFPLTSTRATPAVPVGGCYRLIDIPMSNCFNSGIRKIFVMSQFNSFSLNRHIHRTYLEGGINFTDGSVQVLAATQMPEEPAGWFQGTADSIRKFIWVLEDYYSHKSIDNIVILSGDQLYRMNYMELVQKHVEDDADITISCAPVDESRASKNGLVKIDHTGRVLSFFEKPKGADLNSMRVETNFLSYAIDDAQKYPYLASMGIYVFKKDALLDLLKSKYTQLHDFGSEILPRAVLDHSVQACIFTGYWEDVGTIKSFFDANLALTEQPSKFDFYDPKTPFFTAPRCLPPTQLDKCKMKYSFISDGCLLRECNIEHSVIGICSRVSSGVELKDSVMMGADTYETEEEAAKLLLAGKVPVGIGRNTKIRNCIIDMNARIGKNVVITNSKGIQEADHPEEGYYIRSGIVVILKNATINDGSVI
Experimental: as §2, §3

[1] = molecular target: T3, E123G, R331K, K402R (BT2-BF) (Zea mays, UniProt P55241+Q947C0, E123G/R331K/K402R); assay: as above; format: biochemical; details: read-out: Km (mM), varied substrate ATP, Pi inhibition in the absence of 3-PGA
T3 construct: BT2-BF with wild type SH2 (SH2-WT/BT2-BF), E. coli, purified
T3 sequence (Q947C0 1-475 E123G/R331K/K402R): T1 sequence (Q947C0 1-475 E123G/R331K/K402R)
T3 sequence (P55241 46-516): T1 sequence (P55241 46-516 Q96G/D161G/A443R) with G51Q, G116D, R398A
Experimental: as §2, §3

wt (SH2-WT/BT2-WT) = wt (SH2-WT/BT2-WT) (Zea mays, UniProt P55241+Q947C0); details: read-out: KM ATP
Source text: (§1) All V versus S plots were fitted using non-linear regression analysis and the following equation, v = VmaxS/(Km + S), where v is the measured velocity, Vmax is the maximum velocity, S is the substrate concentration.

K403R = K403R (Zea mays, UniProt P55241+Q947C0, K403R); details: read-out: KM ATP
Source text: as §1

K403R, sequence (Q947C0 1-475 K403R): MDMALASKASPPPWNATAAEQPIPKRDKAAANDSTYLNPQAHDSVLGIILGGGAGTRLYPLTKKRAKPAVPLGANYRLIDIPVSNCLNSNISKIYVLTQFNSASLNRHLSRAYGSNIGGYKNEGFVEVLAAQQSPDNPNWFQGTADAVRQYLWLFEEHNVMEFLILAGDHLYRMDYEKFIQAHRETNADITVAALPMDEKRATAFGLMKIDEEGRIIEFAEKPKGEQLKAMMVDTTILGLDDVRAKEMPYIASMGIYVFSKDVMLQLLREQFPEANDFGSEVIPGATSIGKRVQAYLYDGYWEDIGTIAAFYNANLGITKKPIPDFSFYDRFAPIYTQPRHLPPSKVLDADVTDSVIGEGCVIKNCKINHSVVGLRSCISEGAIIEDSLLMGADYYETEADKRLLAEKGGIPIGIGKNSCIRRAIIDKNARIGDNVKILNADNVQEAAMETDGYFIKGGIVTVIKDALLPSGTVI
K403R, sequence (P55241 46-516): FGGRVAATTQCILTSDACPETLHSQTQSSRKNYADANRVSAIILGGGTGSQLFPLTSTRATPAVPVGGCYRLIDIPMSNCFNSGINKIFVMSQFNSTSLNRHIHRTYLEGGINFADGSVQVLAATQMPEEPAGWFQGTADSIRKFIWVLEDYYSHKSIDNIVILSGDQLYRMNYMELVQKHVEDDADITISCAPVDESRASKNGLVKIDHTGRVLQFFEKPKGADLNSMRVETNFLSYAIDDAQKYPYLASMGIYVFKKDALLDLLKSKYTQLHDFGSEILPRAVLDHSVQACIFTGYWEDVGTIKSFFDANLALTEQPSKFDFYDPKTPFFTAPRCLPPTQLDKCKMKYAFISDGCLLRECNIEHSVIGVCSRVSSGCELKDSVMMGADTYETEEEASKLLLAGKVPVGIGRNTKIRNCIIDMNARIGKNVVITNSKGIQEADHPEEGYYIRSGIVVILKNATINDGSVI
wt (SH2-WT/BT2-WT), sequence (Q947C0 1-475): as the sequence (Q947C0 1-475 K403R) above, with R403K counted along it

## Nc1ncnc2c1ncn2[C@@H]1O[C@H](COP(=O)(O)OP(=O)(O)OP(=O)(O)O)[C@@H](O)[C@H]1O [ATP, adenosine 5'-triphosphate]
SH2-ISM/BT2-BF
  Km: 3.6 ± 1.63 mM
SH2-E/BT2-BF
  Km: 4.98 ± 0.66 mM
[1]
  Km: 0.79 ± 0.075 mM
Wt (SH2-WT/BT2-WT)
  Km: 75 ± 18 µM
K403R
  Km: 75 ± 13 µM

— paper PMC6300691, “Enhancement of Heat Stability and Kinetic Parameters of the Maize Endosperm ADP-Glucose Pyrophosphorylase by Mutagenesis of Amino Acids in the Small Subunit With High B Factors” (Frontiers in Plant Science, 2018)
